Measured values: patent publication US10869931B2, “Polyethylene glycol-modified angiogenesis inhibitor HM-1 and application thereof” (NANJING ANJI BIOLOGICAL TECHNOLOGY CO.,LTD, priority 2016, dated 2020)
Marks after values point to notes of the source that are not given here. Where no end group is shown, it is not given here.

What was measured:
[1] = tested on: Esophageal cancer tumor cells; experiment: MTT proliferation inhibition, esophageal cancer cells; type: cell-based, human; set-up: concentration or dose not given beside the values; settings: 48 h
Description: (§1) The activity of mPEG-HM-1 to inhibit the growth of various tumor cells was examined by MTT assay. The tumor cells were cultured to a concentration of 90% or more in a 37° C., 5% CO2 incubator and collected by trypsinization. The cells were resuspended in the culture medium and counted under a microscope to adjust the cell concentration to 2×10^4 cells/mL, the cell suspension was inoculated into a 96-well plate at 100 μL/well and incubated overnight at 37° C. in a 5% CO2 incubator. mPEG-HM-1 was diluted with the culture solution to each predetermined concentration. Docetaxel is diluted to the final concentration with the culture medium. After the cells were fully attached, each dilution was added to a 96-well plate (100 μL/well). The mPEG-HM-1 dilution was added as a drug-administered group, and docetaxel was added as a positive control group, and a culture solution without any drug was used as a negative control group. Incubate for 48 h at 37° C. in a 5% CO2 incubator. 5 mg/mL of MTT was added to a 96-well plate at 20 μL per well, and incubation was continued for 4 hours. The medium was aspirated, dissolved in 150 μL of DMSO per well, and gently mixed by shaking for 10 min. The absorbance was measured at a measurement wavelength of 570 nm and a reference wavelength of 630 nm using a microplate reader, and the rate of growth inhibition (proliferation inhibition, PI) was calculated. The formula is as follows: PI (%)=1−administration group/negative group
(§2) The test was repeated 3 times independently, and the results obtained by the test were expressed as mean±SD, and the test results are shown in Table 15 to Table 18.

[2] = tested on: Pancreatic cancer tumor cells; experiment: MTT proliferation inhibition, pancreatic cancer cells; type: cell-based, human; set-up: concentration or dose not given beside the values; settings: 48 h
Description: as §1, §2

Lung cancer tumor cells = experiment: MTT proliferation inhibition, lung cancer cells; type: cell-based, human; set-up: concentration or dose not given beside the values; settings: 48 h
Description: as §1, §2

Liver cancer tumor cells = experiment: MTT proliferation inhibition, liver cancer cells; type: cell-based, human; set-up: concentration or dose not given beside the values; settings: 48 h
Description: as §1, §2

[3] = tested on: Colorectal cancer tumor cells; experiment: MTT proliferation inhibition, colorectal cancer cells; type: cell-based, human; set-up: concentration or dose not given beside the values; settings: 48 h
Description: as §1, §2

sarcoma tumor cells = experiment: MTT proliferation inhibition, sarcoma cells; type: cell-based, human; set-up: concentration or dose not given beside the values; settings: 48 h
Description: as §1, §2

[4] = tested on: Human Umbilical Vein Endothelial Cells (HUVEC); experiment: Transwell migration of HUVEC; type: cell-based; settings: 24 h
Description: 10 mg/mL Matrigel was diluted 1:2 with HUVEC-specific medium, spread on a transwell chamber membrane, and air-dried at room temperature. HUVEC cells cultured in logarithmic growth phase were digested with trypsin digest, collected, washed twice with PBS, and resuspended in blank HUVECs-specific medium. The cells were counted under a microscope, and the cell concentration was adjusted to 1×10^5/mL. The test solutions of each group were prepared and diluted to 100 μL with a blank HUVECs-specific medium. The cells were seeded into a transwell chamber at 100 μL per well, and each set of test solution was added to the chamber. The cell culture was stimulated by adding 0.6 mL of endothelial cell culture medium containing 5% fetal bovine serum and 1% ECGS into a 24-well plate, and cultured at 5% CO2 for 24 hour at 37° c. Discard the culture medium in the well, fix it with 90% alcohol at room temperature for 30 minutes, 0.1% crystal violet for 10 min at room temperature, rinse with water, gently wipe off the unsprayed cells in the upper layer with a cotton swab, observe under microscope and select four fields to take pictures. Calculate migration inhibition (MI) according to the formula: […]
Ntest was the number of cell migration in the test group, and Ncontrol was the number of cell migration in the blank control group.
The test was repeated 3 times independently. The results obtained from the test were calculated as mean±SD, and a statistical T test was performed. *P<0.05 was a significant difference, and **P<0.01 was a very significant difference.

[5] = tested on: corneal neovascularization in BALB/c mice; experiment: Alkali-burn corneal neovascularization in BALB/c mice (CD31 microvessel density); type: in vivo, mouse; settings: for Inhibition rate: corneal microvessel density vs control; for Inhibition rate / MVD: day 14 after alkali burn, intravitreal once a day for 1 week; for MVD: microvessel density (CD31) of cornea; for inhibition rate of corneal neovascularization: BALB/c mice, alkali burn, intravitreal injection once a day for 1 week
From the text: (1) Preparation of corneal neovascularization model induced by alkali burn in BALB/c mice: mice were randomly grouped and labeled as mPEG-HM-1 experimental group and control group, 5 […] in each group, respectively, was given mPEG-HM-1 and saline by Intravitreal injection after alkali burn, once a day for 1 week. The inflammatory reaction and neovascularization of the cornea were observed under slit lamp microscope at 1 d, 7 d, and 14 d after alkali burn. On the 14th day after alkali burn, the corneal neovascularization was recorded under the slit lamp microscope in the anterior segment of the eye. All the mice were euthanized by cervical dislocation and the eyeballs were removed, washed with saline to rid of blood, and was fixed in 4% paraformaldehyde for 1.5 h, dehydrated in PBS containing 30% sucrose overnight, embedded in OCT frozen section embedding agent, stored in −80° C. refrigerator, frozen section 8 μm, and underwent immunocytochemical detection of CD31 expression. (2) Quantitative measurement of corneal tissue microvessel density: Microvessel density (MVD) is an indicator for evaluating angiogenesis. Vascular endothelial cells were labeled with anti-CD31 antibody by immunohistochemistry, and the number of microvessels per unit area was counted to measure the degree of neovascularization. Standards for counting microvessels: Microscopically, the endothelial cells or cell clusters that are clearly demarcated from adjacent tissues in the corneal tissue and stained brown or brown are counted in the neovascularization. The number of new blood vessels in the whole section was counted under a 10×20 microscope. After the corneal tissue was photographed, the entire corneal tissue area was calculated by image processing software Image J, and the neovascular density of the whole section was determined. The test was repeated 3 times independently. The results obtained by the test were expressed as mean±SD, and a statistical T test was performed. *P<0.05 was a significant difference, and **P<0.01 was a very significant difference.

Row | Substance | rate of growth inhibition [1] | rate of growth inhibition [2] | rate of growth inhibition (Lung cancer tumor cells) | rate of growth inhibition (Liver cancer tumor cells) | rate of growth inhibition [3] | rate of growth inhibition (sarcoma tumor cells) | cell migration number (Mean ± SD) ([4]; 30 μg/mL) | inhibition rate of HUVEC migration ([4]; 30 μg/mL) | cell migration number (Mean ± SD) ([4]; 40 μg/mL) | inhibition rate of HUVEC migration ([4]; 40 μg/mL) | cell migration number (Mean ± SD) ([4]; 50 μg/mL) | inhibition rate of HUVEC migration ([4]; 50 μg/mL) | cell migration number (Mean ± SD) ([4]; 60 μg/mL) | inhibition rate of HUVEC migration ([4]; 60 μg/mL) | Inhibition rate [5] | MVD [5] | cell migration number (Mean ± SD) ([4]; 70 μg/mL) | inhibition rate of HUVEC migration ([4]; 70 μg/mL) | cell migration number (Mean ± SD) ([4]; 80 μg/mL) | inhibition rate of HUVEC migration ([4]; 80 μg/mL) | further results
1 | mPEG2-NHS5k-Arg-Gly-Ala-Asp-Arg-Ala-Gly-Gly-Gly-Gly-Arg-Gly-Asp ({mPEG2‑NHS 5 kDa}-RGADRAGGGGRGD) [mPEG2-NHS5k-HM-1] | 41.35 ± 11.32% | 46.58 ± 13.12% | 42.83 ± 12.58% | 50.92 ± 11.66% | 52.37 ± 12.24% | 38.41 ± 11.10% | 611.33 ± 58.92 | 41.03%* | 516.16 ± 48.34 | 50.21% | 475.01 ± 50.90 | 54.18% | 590.29 ± 50.72 | 43.06%* | 40.13% | 39.95 ± 3.985* | – | – | – | – | –
2 | mPEG2-NHS10k-Arg-Gly-Ala-Asp-Arg-Ala-Gly-Gly-Gly-Gly-Arg-Gly-Asp ({mPEG2‑NHS 10 kDa}-RGADRAGGGGRGD) [mPEG2-NHS10k-HM-1] | 48.12 ± 12.85% | 50.23 ± 14.26% | 45.28 ± 13.96% | 54.19 ± 12.80% | 55.78 ± 15.77% | 43.59 ± 12.39% | – | – | – | – | 603.97 ± 40.36 | 41.74%* | 506.83 ± 46.25 | 51.11% | 50.07% | 33.32 ± 3.871** | 410.53 ± 48.64 | 60.40% | 563.02 ± 56.22 | 45.69%* | inhibition rate of corneal neovascularization [5]: 50.07%
3 | mPEG2-NHS20k-Arg-Gly-Ala-Asp-Arg-Ala-Gly-Gly-Gly-Gly-Arg-Gly-Asp ({mPEG2‑NHS 20 kDa}-RGADRAGGGGRGD) [mPEG2-NHS20k-HM-1] | 50.79 ± 14.37% | 52.13 ± 13.32% | 50.82 ± 12.68% | 55.03 ± 14.19% | 58.16 ± 20.36% | 48.91 ± 10.57% | – | – | – | – | – | – | – | – | 42.37% | 38.46 ± 4.528** | 618.48 ± 47.53 | 40.34%* | 512.85 ± 40.86 | 50.53% | cell migration number (Mean ± SD) ([4]; 90 μg/mL): 434.68 ± 42.64; inhibition rate of HUVEC migration ([4]; 90 μg/mL): 58.07%; cell migration number (Mean ± SD) ([4]; 100 μg/mL): 562.61 ± 62.34; inhibition rate of HUVEC migration ([4]; 100 μg/mL): 45.73%*
4 | mPEG2-NHS40k-Arg-Gly-Ala-Asp-Arg-Ala-Gly-Gly-Gly-Gly-Arg-Gly-Asp ({mPEG2‑NHS 40 kDa}-RGADRAGGGGRGD) [mPEG2-NHS40k-HM-1] | 48.65 ± 12.64% | 51.49 ± 16.28% | 49.39 ± 16.55% | 53.77 ± 13.64% | 54.40 ± 18.29% | 46.46 ± 11.54% | – | – | – | – | – | – | – | – | 43.19% | 37.91 ± 4.273** | – | – | – | – | cell migration number (Mean ± SD) ([4]; 90 μg/mL): 640.05 ± 50.70; inhibition rate of HUVEC migration ([4]; 90 μg/mL): 38.26%*; cell migration number (Mean ± SD) ([4]; 100 μg/mL): 516.99 ± 60.04; inhibition rate of HUVEC migration ([4]; 100 μg/mL): 50.13%; cell migration number (Mean ± SD) ([4]; 110 μg/mL): 464.43 ± 46.48; inhibition rate of HUVEC migration ([4]; 110 μg/mL): 55.20%; cell migration number (Mean ± SD) ([4]; 120 μg/mL): 584.48 ± 52.28; inhibition rate of HUVEC migration ([4]; 120 μg/mL): 43.62%*
5 | mPEG-ALD5k-Arg-Gly-Ala-Asp-Arg-Ala-Gly-Gly-Gly-Gly-Arg-Gly-Asp ({mPEG‑ALD 5 kDa}-RGADRAGGGGRGD) [mPEG-ALD5k-HM-1] | 44.63 ± 10.86% | 52.19 ± 12.64% | 45.76 ± 13.20% | 52.98 ± 11.55% | 57.30 ± 15.82% | 38.41 ± 12.53% | 606.88 ± 58.90 | 41.02%* | 494.52 ± 52.69 | 51.94% | 415.39 ± 44.92 | 59.63% | 578.69 ± 66.03 | 43.76%* | 45.09% | 36.64 ± 3.909* | – | – | – | – | –
6 | mPEG-ALD10k-Arg-Gly-Ala-Asp-Arg-Ala-Gly-Gly-Gly-Gly-Arg-Gly-Asp ({mPEG‑ALD 10 kDa}-RGADRAGGGGRGD) [mPEG-ALD10k-HM-1] | 65.18 ± 15.16% | 79.21 ± 19.14% | 65.73 ± 16.20% | 70.55 ± 20.09% | 80.22 ± 20.03% | 53.01 ± 11.42% | – | – | – | – | 604.31 ± 52.14 | 41.27%* | 514.38 ± 42.38 | 50.01% | 53.83% | 30.81 ± 5.465** | 417.96 ± 50.48 | 59.38% | 548.54 ± 56.22 | 46.69%* | inhibition rate of corneal neovascularization [5]: 53.83%
